Like-named read-outs stand apart in the source and are kept apart here.
Legend:
KAT2A = KAT2A (Homo sapiens (Human), UniProt Q92830); experiment: KAT2A acetyltransferase biochemical assay (RapidFire mass spectrometry, AcCoA to CoA)
Experimental: • A) Compound preparation • 1) Prepare 10 mM stock solutions in 100% DMSO from solid material. • 2) Serial dilute 10 mM, 1 mM, 0.1 or 0.01 mM compound stocks 3-fold in 100% DMSO for 11-point dose response. • B) Reagent preparation • 1) Prepare 1×assay buffer containing 40 mM bis tris propane pH 8.0, 10 mM NaCl, 0.5 mM EDTA, and 0.002% Tween-20. • 2) Dilute Histone peptide (CPC Scientific) and KAT enzyme together in assay buffer to 1.25×. • 3) Dilute AcCoA (Sigma) in assay buffer to 5×. • C) Enzyme reaction • 1) Final reaction conditions for each KAT assay in a 100ul assay reaction volume: • i) KAT2A 0.5 nM, 1 uM AcCoA, 5 uM H3 1-21 peptide, 90-minute reaction • ii) KAT2B 0.5 nM, 1 uM AcCoA, 5 uM H3 1-21 peptide, 90-minute reaction • 2) Add 2 ul of diluted compound series to the assay plate (96-well round-bottom polypropylene plates) or 2 ul of DMSO for control wells. • 3) Add 11 μL of 10% formic acid to 100% effect (HPE) control wells. • 4) Add 80 ul of 1.25× Histone peptide/KAT mix to the assay plate via Multidrop Combi (ThermoFisher). Incubate 15 min at room temperature. • 5) Add 20 ul of 5× AcCoA to the assay plate via Multidrop Combi. • 6) Stop the reaction after the indicated time with the addition of 11 ul of 10% formic acid via Multidrop Combi. • 7) Each reaction was analyzed using Rapid Fire mass spectrometry platform.
KAT enzymes were expressed using a baculovirus expression system and purified at Pfizer, La Jolla. […] Acetyl coenzyme A was purchased from Sigma-Aldrich (St. Louis, MO). All other biochemical reagents were purchased from Sigma-Aldrich or ThermoFisher Scientific (Waltham, MA).
KAT assays were performed at room temperature in assay buffer containing 1 μM AcCoA, 5 μM histone peptide, 40 mM bis tris propane pH 8.0, 10 mM NaCl, 0.5 mM EDTA 0.002% Tween-20. 80 ul of 1.25× Histone peptide/enzyme mix was added to a 96-well round-bottom polypropylene assay plate containing 2 ul of serially diluted test compound in 100% dimethyl sulfoxide (DMSO). To start the reaction, 20 ul of 5× AcCoA solution was added to the assay plate. KAT assays were terminated after 90 minutes with the addition of 11 ul of 10% formic acid. All assays used histone H3 (1-21) peptide. The final enzyme concentration for each KAT was as follows: KAT2A, 0.5 nM; KAT2B, 0.5 nM. […] Each reaction was analyzed using Rapid Fire mass spectrometry platform. This methodology leverages an Agilent 6495 triple quadrupole (QQQ) mass spectrometer coupled to a RapidFire model 365 to specifically capture and measure KAT2 acetyltransferase activity, converting AcCoA (substrate) to CoA (product).
Area under the curve (AUC) for both substrate and product peaks was determined for KAT2 at M.W. 809.6 [Substrate+H]+ and 767.3 [Product+H]+ with a +/−1 Da tolerance, respectively. Acetyltransferase activity (% of DMSO control) was calculated by: ((AUCProduct/AUCsubstrate)-AUCHPE)/(AUCZPE-AUCHPE))*100. Ki values were determined by fitting the % acetyltransferase activity at each inhibitor concentration to the Morrison equation for tightbinding competitive inhibitors using Pfizer proprietary curve fitting software.
To determine the inhibition of KAT enzymatic activity by test compounds, assay reactions were conducted in a volume of 100 μL in 96-well round-bottom polypropylene assay plate. The reactions were performed in assay buffer (40 mM bis tris propane, pH 8, 10 mM NaCl, 0.5 mM EDTA, 0.002% Tween-20).

H3K9AC (HT1080 cells) = experiment: H3K9AC Sandwich ELISA Assay in HT1080 cells (KAT2A primary cell-based screening assay); parameters: species or system Human
How it was run: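 HT1080 fibrosarcoma cells seeded 16 h, then treated 24 h at 37 °C with 10-point 1:3 compound dilutions (top 10 µM final, 0.1% DMSO). Acid lysates neutralized with butyrate/PMSF; H3K9ac measured by total-H3-capture sandwich ELISA with luminescent HRP readout, IC50 by four-parameter fit.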

MM.1S cells = experiment: MM1.S 10 Day Proliferation Assay (CellTiter-Glo); format: cell-based, Human
Experimental: Human B lymphoblast cell line MM.1S was obtained from American Type Culture Collection (ATCC), Manassas, VA USA, Cat. MM.1S (ATCC® CRL-2974™). Cells were cultured in RPMI (Thermo Fisher Scientific/Gibco Life Technologies Cat. #111875-093) plus 10% (v/v) FBS (Thermo Fisher Scientific/Gibco Life Technologies Cat. #26140-079) and 1% Penicillin-Streptomycin (Thermo Fisher Scientific/Gibco Life Technologies Cat. #15070063) at 37° C. in 5% CO2.
MM1.S cells were trypsinized cell viability count performed, and cells suspended in complete media at 5,556 cells/ml. Cells were then seeded (90 μl/well) into a 96-well round black/clear bottom, ULA (Ultra-Low Attachment surface plate (Corning cat #4520) at a density of 500 cells/well. Cells were then incubated for 16 hours at 37° C. and 5% CO2. Compound dilution plates were prepared in 96-well, clear U-bottom, polypropylene plates (Corning 3365) in 100% DMSO at 10 mM stock concentration in duplicate wells, using a 10-point serial dilution (1:3 dilutions). Compounds were diluted to 1:100 in growth medium. Then 10 μl of diluted compounds were added to each well of the cell plates using a Beckman FX liquid handling system such that the highest compound concentration tested was 10 μM final, with a 0.1% final DMSO concentration in the total volume of 100 μl. Plates were incubated for 10 total days at 37° C. and 5% CO2. Fresh media containing compound was refreshed at 5 days treatment.
Finally, the treatment plates were removed from the incubator and 100 μl of CellTiter-Glo Luminescent reagent was added to each well, and plates were equilibrated in the dark for 30 minutes. Plates were read on the PHERAstar plate reader using the 96-well with Luminescent reading mode. IC50 values were calculated using a four-parameter fit with GraphPad Prism version 9.5.1 or in house modified IDBS ActivityBase data analyzing package.

[1] = read-out: KAT2A Ki at 1 μM AcCoA, 5 μM H3 1-21 peptide, 0.5 nM KAT2A, 90-minute reaction
[2] = Homo sapiens, HT-1080, H3K9AC sandwich ELISA
[3] = KAT2A Ki at 1 μM AcCoA, 5 μM H3 1-21 peptide, 0.5 nM KAT2A, 90-minute reaction

Chain of KAT2A (Q92830 whole entry): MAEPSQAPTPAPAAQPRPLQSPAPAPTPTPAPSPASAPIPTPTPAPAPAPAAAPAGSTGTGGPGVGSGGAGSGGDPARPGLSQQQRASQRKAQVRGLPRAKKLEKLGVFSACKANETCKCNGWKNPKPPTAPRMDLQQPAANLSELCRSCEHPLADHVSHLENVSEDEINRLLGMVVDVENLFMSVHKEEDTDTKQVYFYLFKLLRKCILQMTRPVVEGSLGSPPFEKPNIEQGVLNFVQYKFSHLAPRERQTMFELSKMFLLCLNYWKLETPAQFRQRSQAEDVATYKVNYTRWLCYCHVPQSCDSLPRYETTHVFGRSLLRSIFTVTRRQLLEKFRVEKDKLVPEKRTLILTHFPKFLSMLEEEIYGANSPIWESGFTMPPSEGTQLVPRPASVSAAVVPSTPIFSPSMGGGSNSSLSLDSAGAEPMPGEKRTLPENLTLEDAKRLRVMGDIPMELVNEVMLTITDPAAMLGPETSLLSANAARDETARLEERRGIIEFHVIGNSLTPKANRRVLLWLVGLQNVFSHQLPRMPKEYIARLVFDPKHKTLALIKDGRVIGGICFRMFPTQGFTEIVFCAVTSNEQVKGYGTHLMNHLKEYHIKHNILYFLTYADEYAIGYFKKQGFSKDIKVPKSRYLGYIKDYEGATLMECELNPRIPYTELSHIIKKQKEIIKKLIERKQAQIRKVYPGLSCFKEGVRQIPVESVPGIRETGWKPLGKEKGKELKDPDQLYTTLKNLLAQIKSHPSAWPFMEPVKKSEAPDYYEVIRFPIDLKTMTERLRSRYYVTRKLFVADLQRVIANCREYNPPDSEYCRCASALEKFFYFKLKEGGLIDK

Ki (KAT2A; [1]) [nM]	IC50 (H3K9AC (HT1080 cells); H3K9AC sandwich ELISA) [nM]	IC50 (MM.1S cells) [nM]	IC50 (H3K9AC (HT1080 cells); [2]) [nM]	IC50 (MM.1S cells; Homo sapiens, MM1.S, 240 h) [nM]	Ki (KAT2A; [3]) [nM]	SMILES
16.1	121	1270				CC(C)S(=O)(=O)NC(=O)C(C)(C)c1ccc(O[C@@H]2CC[C@@H](NC(=O)[C@@]3(F)CNC(C)(C)C3)C2)c(-c2cccc(F)c2C2CCC2)c1 (single isomer, unassigned) [Example B18]
2.22			21.6	253		CCc1c(F)cccc1-c1cc(C(C)(C)C(=O)NS(C)(=O)=O)ccc1O[C@@H]1CC[C@@H](NC(=O)[C@@]2(F)CNC3(CCC3)C2)C1 (single isomer, unassigned) [Example C11]
0.3	18.6			23.6		C[C@@H](C(=O)O)c1nn(C)cc1-c1ccc(O[C@@H]2CC[C@@H](NC(=O)[C@]3(F)CNC4(CCC4)C3)C2)c(-c2cccc(F)c2C2CCC2)c1 (single isomer, unassigned) [Example J4]
91.9			98.5	497		CC(C)c1ccccc1-c1cc(CC(=O)O)ccc1O[C@@H]1CC[C@@H](NC(=O)[C@@H]2CC(C)(C)CN2C)C1 [Example D11, [2′-(propan-2-yl)-6-({(1R,3R)-3-[(1,4,4-trimethyl-L-prolyl)amino]cyclopentyl}oxy)[1,1′-biphenyl]-3-yl]acetic acid]
0.33			2.9	14.3		CC(C)c1ccccc1-c1cc(C(C)(C)C(=O)NS(=O)(=O)C(C)C)ccc1O[C@@H]1CC[C@@H](NC(=O)[C@@]2(F)CNC3(CCC3)C2)C1 [Example C47, (7S)-7-fluoro-N-[(1R,3R)-3-({5-[2-methyl-1-oxo-1-(propane-2-sulfonamido)propan-2-yl]-2′-(propan-2-yl)[1,1′-biphenyl]-2-yl}oxy)cyclopentyl]-5-azaspiro[3.4]octane-7-carboxamide]
	3	9.2				CC(C)c1ccccc1-c1cc(C(=O)O)ccc1O[C@@H]1CC[C@@H](NC(=O)[C@@]2(F)CNC3(CCCC3)C2)C1 (single isomer, unassigned) [Example A41]
1800				7560		CC(C)(C(=O)O)c1ccc(O[C@@H]2CC[C@@H](NC(=O)[C@@]3(F)CNC4(CCCC4)C3)C2)c(-c2cccc(F)c2C2CCC2)c1 (single isomer, unassigned) [Example A5]
1270			> 1000			CC(C)(C(N)=O)c1ccc(O[C@@H]2CC[C@@H](NC(=O)[C@]3(F)CNC4(CCC4)C3)C2)c(-c2cccc(F)c2C2CCC2)c1 (single isomer, unassigned) [Example C15]
163			3130			CN1CC2(CCCC2)C[C@@H]1C(=O)N[C@@H]1CC[C@@H](Oc2cccc(C(=O)NS(C)(=O)=O)c2-c2cccc(F)c2C2CCC2)C1 (atropisomer, axis not shown) [Example I11, (3ξ)-N-[(1R,3R)-3-({(1ψ)-2′-cyclobutyl-3′-fluoro-6-[(methanesulfonyl)carbamoyl][1,1′-biphenyl]-2-yl}oxy)cyclopentyl]-2-methyl-2-azaspiro[4.4]nonane-3-carboxamide]
27.3	451					CC(C)n1cc(-c2ccc(O[C@@H]3CC[C@@H](NC(=O)[C@@]4(F)CNC5(CCC5)C4)C3)c(-c3cccc(F)c3C3CCC3)c2)c(C(=O)O)n1 (single isomer, unassigned) [Example J15]
1.08			19			CN1CC(C)(C)C[C@H]1C(=O)N[C@@H]1CC[C@@H](Oc2ccc(C(=O)O)cc2-c2cccc(F)c2C2CCC2)C1 [Example D6, 2′-cyclobutyl-3′-fluoro-6-({(1R,3R)-3-[(1,4,4-trimethyl-L-prolyl)amino]cyclopentyl}oxy)[1,1′-biphenyl]-3-carboxylic acid]
29.1	95.6					O=C(O)Cc1ccc(O[C@@H]2CC[C@@H](NC(=O)[C@@]3(F)CNC4(CCCC4)C3)C2)c(-c2cccc(F)c2C2CCC2)c1 (single isomer, unassigned) [Example A26]
1440			> 10000			CC1(C)C[C@@](F)(C(=O)N[C@@H]2CC[C@@H](Oc3ccc(C(C)(C)C(=O)O)cc3-c3cccc(F)c3C3CCC3)C2)CN1 (single isomer, unassigned) [Example A3]
> 1000	296					CC1(C)CNC[C@](F)(C(=O)N[C@@H]2CC[C@@H](Oc3ccc(C(C)(C)C(=O)O)cc3-c3cccc(F)c3C3CCC3)C2)C1 (single isomer, unassigned) [Example A15]
13.6			142			CC1(C)C[C@](F)(C(=O)N[C@@H]2CC[C@@H](Oc3ccc(C(C)(C)C(=O)NS(=O)(=O)N4CCC4)cc3-c3cccc(F)c3C3CCC3)C2)CN1 (single isomer, unassigned) [Example C8]
0.06	5.4					CCS(=O)(=O)NC(=O)[C@H](C)c1ccc(O[C@@H]2CC[C@@H](NC(=O)[C@@]3(F)CNC4(CCC4)C3)C2)c(-c2cccc(F)c2C2CCC2)c1 (single isomer, unassigned) [Example C91]
8.87			83.5			[2H]C([2H])([2H])N1CC(C)(C)C[C@H]1C(=O)N[C@@H]1CC[C@@H](Oc2ccc(C(C)(C)C(=O)O)cc2-c2cccc(F)c2C2CCC2)C1 [Example D15, 2-(2′-cyclobutyl-6-{[(1R,3R)-3-{[4,4-dimethyl-1-(^2H3)methyl-L-prolyl]amino}cyclopentyl]oxy}-3′-fluoro[1,1′-biphenyl]-3-yl)-2-methylpropanoic acid]
31.1	135					CC(C)c1ccccc1-c1cc(CC(=O)NS(=O)(=O)C2(C)CC2)ccc1O[C@@H]1CC[C@@H](NC(=O)[C@@]2(F)CNCC(C)(C)C2)C1 (single isomer, unassigned) [Example C81]
	562				80.5	CCS(=O)(=O)NC(=O)C(C)(C)c1ccc(O[C@@H]2CC[C@@H](NC(=O)C3(F)CNC4(CCC4)C3)C2)c(-c2cccc(F)c2C2CCC2)c1 (single isomer, unassigned) [Example B1]
0.07	1.5					CCc1c(F)cccc1-c1cc([C@@H](C)C(=O)NS(=O)(=O)C2(C)CC2)ccc1O[C@@H]1CC[C@@H](NC(=O)[C@@]2(F)CNC3(CCCC3)C2)C1 (single isomer, unassigned) [Example C87]
46	485					CC(C)S(=O)(=O)NC(=O)Cc1ccc(O[C@@H]2CC[C@@H](NC(=O)[C@@]3(F)CNCC(C)(C)C3)C2)c(-c2cccc(F)c2C2CCC2)c1 (single isomer, unassigned) [Example C76]
	790				61.6	C[C@@H](C(=O)O)c1nn(C)cc1-c1ccc(O[C@@H]2CC[C@@H](NC(=O)[C@]3(F)CNC4(CCC4)C3)C2)c(-c2cccc(F)c2C2CCC2)c1 (single isomer, unassigned) [Example J2]
0.17	6.1					CCc1c(F)cccc1-c1cc([C@@H](C)C(=O)NS(=O)(=O)C2(C)CC2)ccc1O[C@@H]1CC[C@@H](NC(=O)[C@@]2(F)CNC3(CCCC3)C2)C1 (single isomer, unassigned) [Example C85]
1.3			30.4			C[C@@H](C(=O)NS(C)(=O)=O)c1ccc(OC[C@H]2C[C@H](NC(=O)[C@@H]3CC(C)(C)CN3C)C2)c(-c2cccc(F)c2C2CCC2)c1 (single isomer, unassigned) [Example G4]
12.4			66.6			CC(C)c1c(F)cccc1-c1cc(CC(=O)O)ccc1O[C@@H]1CC[C@@H](NC(=O)[C@@H]2CC(C)(C)CN2C)C1 [Example D12, [3′-fluoro-2′-(propan-2-yl)-6-({(1R,3R)-3-[(1,4,4-trimethyl-L-prolyl)amino]cyclopentyl}oxy)[1,1′-biphenyl]-3-yl]acetic acid]
0.02	> 1000					CC1(C)CNC[C@](F)(C(=O)N[C@@H]2CC[C@@H](Oc3ccc(C(=O)O)cc3-c3cccc(F)c3C3CCC3)C2)C1 (single isomer, unassigned) [Example A37]

SMILES	Ki (KAT2A; [1]) [nM]	IC50 (H3K9AC (HT1080 cells); H3K9AC sandwich ELISA) [nM]	IC50 (MM.1S cells) [nM]	IC50 (H3K9AC (HT1080 cells); [2]) [nM]	IC50 (MM.1S cells; Homo sapiens, MM1.S, 240 h) [nM]	Ki (KAT2A; [3]) [nM]
CN(C)S(=O)(=O)NC(=O)c1cccc(O[C@@H]2CC[C@@H](NC(=O)[C@@]3(F)CNC4(CCC4)C3)C2)c1-c1cccc(F)c1C1CCC1 [Example I20, (7S)-N-[(1R,3R)-3-({(1ψ)-2′-cyclobutyl-6-[(dimethylsulfamoyl)carbamoyl]-3′-fluoro[1,1′-biphenyl]-2-yl}oxy)cyclopentyl]-7-fluoro-5-azaspiro[3.4]octane-7-carboxamide]	26.3	51.9				

From patent publication US20250188030A1, “Biphenyl and Phenylpyridine Compounds” (Pfizer Inc., priority 2023, published 2025)
